Test [1] deals with T1, Thymidylate synthase (Lactobacillus casei) (UniProt P00469).
T1 sequence (whole entry): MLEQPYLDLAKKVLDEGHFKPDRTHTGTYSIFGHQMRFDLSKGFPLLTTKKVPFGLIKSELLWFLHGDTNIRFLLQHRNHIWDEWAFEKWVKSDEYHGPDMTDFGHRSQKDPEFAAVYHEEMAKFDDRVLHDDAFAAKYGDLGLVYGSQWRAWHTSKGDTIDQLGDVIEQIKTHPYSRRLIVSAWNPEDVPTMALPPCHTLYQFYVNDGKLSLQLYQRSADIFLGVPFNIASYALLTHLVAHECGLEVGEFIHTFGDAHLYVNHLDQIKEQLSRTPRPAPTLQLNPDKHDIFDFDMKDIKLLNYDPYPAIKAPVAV
The experiment in a line: Inhibition of thymidylate synthetase in Lactobacillus casei. The conditions noted are these: Lacticaseibacillus casei.

Test [2] deals with Thymidylate synthase (Mus musculus) (UniProt P07607). As to the kind of experiment: Inhibition of thymidylate synthetase in mouse L1210S cells. It is filed as cell-based.
The target of test [3] is T2, Dihydrofolate reductase (Homo sapiens) (UniProt P00374).
T2 sequence (whole entry): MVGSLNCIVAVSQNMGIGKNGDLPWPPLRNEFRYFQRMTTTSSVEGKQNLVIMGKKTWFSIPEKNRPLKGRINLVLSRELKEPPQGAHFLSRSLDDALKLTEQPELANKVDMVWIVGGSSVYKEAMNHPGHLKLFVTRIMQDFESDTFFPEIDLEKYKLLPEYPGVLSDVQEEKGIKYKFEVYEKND
Description: Inhibition of dihydrofolate reductase in human acute lymphocytic leukemia cells

Molecules are shown by their SMILES.

Chain of Thymidylate synthase (Mus musculus) (P07607 whole entry, looked up): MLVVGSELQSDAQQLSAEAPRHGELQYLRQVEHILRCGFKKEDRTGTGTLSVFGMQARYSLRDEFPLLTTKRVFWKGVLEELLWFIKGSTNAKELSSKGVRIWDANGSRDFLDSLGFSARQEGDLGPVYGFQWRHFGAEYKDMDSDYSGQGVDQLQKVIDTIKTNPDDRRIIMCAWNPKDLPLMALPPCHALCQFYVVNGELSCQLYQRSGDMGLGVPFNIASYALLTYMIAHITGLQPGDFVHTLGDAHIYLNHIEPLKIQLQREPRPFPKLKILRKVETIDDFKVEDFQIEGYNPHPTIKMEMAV

Consider `CCOC(=O)CCC(NC(=O)c1ccc(CNc2ccc3nc(N)nc(O)c3c2)cc1)C(=O)OCC` (stereo unspecified), for which the results for the log(1/I50) in test [1], in test [2] and in test [3] were 4.46, 6 and 5.65, respectively.
`Nc1nc(O)c2cc(NCc3ccc(C(=O)O)cc3)ccc2n1`: the log(1/I50) in test [1] and in test [2] was 4 in each case.
Regarding `CN(Cc1ccc2nc(N)nc(O)c2c1)c1ccc(C(=O)O)cc1`, the log(1/I50) is 4.12 in test [1] and 4.7 in test [2].
In the case of `CCOC(=O)c1ccc(NCc2ccc3nc(N)nc(N)c3c2)cc1`, the log(1/I50) in test [1] and in test [2] was 4 in each case.
Regarding `Nc1nc(=O)c2cc(CSc3ccc(C(=O)NC(CCC(=O)O)C(=O)O)cc3)ccc2[nH]1` (stereo unspecified), the results for the log(1/I50) in test [1], in test [2] and in test [3] were 5.6, 6 and 4.9, respectively.
Regarding `CCOC(=O)c1ccc(NCc2ccc3nc(N)nc(N)c3c2C)cc1`, the log(1/I50) in test [1] and in test [2] was 4 each time.
For the compound `CCOC(=O)CCC(NC(=O)c1ccc(N(C)Cc2ccc3nc(N)nc(O)c3c2)cc1)C(=O)OCC` (stereo unspecified), the log(1/I50) in test [1] is 4.12; in test [2], 5.12.
Take `Nc1nc(N)c2cc(NCc3ccc(C(=O)NC(CCC(=O)O)C(=O)O)cc3)ccc2n1` (stereo unspecified): the log(1/I50) turned out to be 5.3 in test [1], 6.6 in test [2] and 8 in test [3].
For `CCOC(=O)c1ccc(CNc2ccc3nc(N)nc(O)c3c2C)cc1`, the log(1/I50) in test [1] is 4.05; in test [2], 4.
Take `Nc1nc(N)c2cc(CN(C=O)c3ccc(C(=O)O)cc3)ccc2n1`: the log(1/I50) in test [1] is 4.12; in test [2] it was 4.
`Nc1nc(O)c2cc(CNc3ccc(C(=O)O)cc3)ccc2n1`: the log(1/I50) in test [1] and in test [2] was 4 in each case.
In the case of `CCOC(=O)CCC(NC(=O)c1ccc(NCc2ccc3nc(N)nc(N)c3c2)cc1)C(=O)OCC` (stereo unspecified), the log(1/I50) in test [1] and in test [2] was 4 in each case.
In test [3], `CC(=O)N(Cc1ccc2nc(N)nc(N)c2c1)c1ccc(Cl)c(Cl)c1` came in with a log(1/I50) of 7.3.
Consider `COc1cc(NCc2ccc3nc(N)nc(N)c3c2)cc(OC)c1OC`, for which, in test [3], the log(1/I50) is 8.22.
For the compound `Cc1c(CN(N=O)c2ccc(Cl)c(Cl)c2)ccc2nc(N)nc(N)c12`, the log(1/I50) in test [3] is 8.
In test [3], `Nc1nc(N)c2cc(CNc3ccc(Cl)c(C(F)(F)F)c3)ccc2n1` came in with a log(1/I50) of 8.4.
On to `CCOC(=O)CCC(NC(=O)c1ccc(NCc2ccc3nc(N)nc(O)c3c2)cc1)C(=O)OCC` (stereo unspecified), for which the values for the log(1/I50) in test [1] and in test [2] were 4.15 and 6.6, respectively.
For `Cc1c(CNc2ccc(C(=O)NC(CCC(=O)O)C(=O)O)cc2)ccc2nc(N)nc(O)c12` (stereo unspecified), the log(1/I50) in test [1] stood at 4.9; in test [2], 7.
The corresponding values for `Cc1c(NCc2ccc(C(=O)O)cc2)ccc2nc(N)nc(O)c12` are 4.05 and 4.05.
Consider `Nc1nc(N)c2cc(CNc3ccc(C(=O)NC(CCC(=O)O)C(=O)O)cc3)ccc2n1` (stereo unspecified), for which the results for the log(1/I50) in test [1] and in test [2] were 4 and 5, respectively.
The compound `Nc1nc(N)c2cc(CN(C=O)c3ccc(C(=O)NC(CCC(=O)O)C(=O)O)cc3)ccc2n1` (stereo unspecified) registered a log(1/I50) in test [3] of 8.22.
As for `Nc1nc(O)c2cc(CN(C=O)c3ccc(C(=O)NC(CCC(=O)O)C(=O)O)cc3)ccc2n1` (stereo unspecified), the log(1/I50) in test [1] is 5.52; in test [2], 7.
In the case of `CN(Cc1ccc2nc(N)nc(S)c2c1)c1ccc(C(=O)O)cc1`, the log(1/I50) turned out to be 4.12 in test [1] and 5.12 in test [2].
Turning to `Cc1c(CNc2ccc(Cl)c(Cl)c2)ccc2nc(N)nc(N)c12`, the log(1/I50) in test [3] came to 8.59.
As to `Nc1nc(S)c2cc(CNc3ccc(C(=O)O)cc3)ccc2n1`, the log(1/I50) in test [1] and in test [2] was 4 each time.
In the case of `Nc1nc(O)c2cc(COc3ccc(C(=O)NC(CCC(=O)O)C(=O)O)cc3)ccc2n1` (stereo unspecified), the log(1/I50) in test [1] was determined as 4; in test [2] it was 5.
Compound `Cc1c(CNc2ccc(C(=O)NC(CCC(=O)O)C(=O)O)cc2)ccc2nc(N)nc(N)c12` (stereo unspecified) yielded a log(1/I50) in test [3] of 8.78.
`CN(Cc1ccc2nc(N)nc(N)c2c1)c1ccc(Cl)c(Cl)c1` gave a log(1/I50) in test [3] of 8.3.

Source of the values: ChEMBL document CHEMBL3227974, “Multivariate analysis and quantitative structure-activity relationships. Inhibition of dihydrofolate reductase and thymidylate synthetase by quinazolines” (J Med Chem, 1979).
